Reference: patent US6399298B1, “Ku70—related methods” (Sloan-Kettering Institute for Cancer Research, priority 1998, dated 2002)

Key:
[1] = test system: cells derived from Ku70 knock-out mice; assay: Survival experiments with cells derived from Ku70 knock-out mice; assay type: cell-based; conditions: Ku70 knock-out mouse cells, FIG. 12
[2] = test system: cells derived from Ku80 knock-out mice; assay: Survival experiments with cells derived from Ku80 knock-out mice; assay type: cell-based; conditions: Ku80 knock-out mouse cells, FIG. 12
[3] = test system: HeLa cells expressing antisense Ku70; assay: Cytotoxicity in stable HeLa cells expressing antisense Ku70 RNA (Tet-Off); assay type: cell-based, human; conditions: adriamycin 1 μg/ml; expression of Ku70 antisense RNA; FIG. 13
Procedure: Effect of (A) radiation, and (B) adriamycin on different cell types. O=HeLa controls cells; ▪=HeLa cells expressing antisense Ku70; ▴=HeLa cell expressing antisense Ku80.
Stable HeLa cells, containing human Ku70 cDNA or human Ku80 cDNA, in the antisense orientation, under the regulation of the Tet-Off™ expression system (Clonetech), were established. Upon induction of the expression system these cells should produce antisense Ku70 or Ku80 RNA, respectively. Experiments were performed showing (FIG. 13) that expression of either Ku70 or Ku80 antisense RNA increased the cytotoxic effect adriamycin by 3-5 fold at 1 μg/ml and that expression of Ku70 antisense RNA increased the cytotoxic effect of γ-radiation approximately 5 fold (at 6 Gy).

[4] = test system: HeLa cells expressing antisense Ku80; assay: Cytotoxicity in stable HeLa cells expressing antisense Ku80 RNA (Tet-Off); assay type: cell-based, human; conditions: adriamycin 1 μg/ml; expression of Ku80 antisense RNA; FIG. 13

Row | Compound | sensitivity of cells to the agent (survival) [1] | sensitivity of cells to the agent (survival) [2] | increase of the cytotoxic effect of adriamycin [3] | increase of the cytotoxic effect of adriamycin [4]
1 | COc1cccc2c1C(=O)c1c(O)c3c(c(O)c1C2=O)C[C@@](O)(C(=O)CO)C[C@@H]3O[C@H]1C[C@H](N)[C@H](O)[C@H](C)O1 [adriamycin] | very sensitive | very sensitive | 3-5 fold | 3-5 fold
2 | bleomycin | very sensitive | very sensitive |  | 
